Reference: patent publication US5912351A, “Anhydrous 1,4-Dihydropyridines and salts thereof” (Recordati, S.A. Chemical and Pharmaceutical Company, priority 1995, dated 1999)
Read-outs that look alike come from different tables or passages of the source.

What was measured:
[1] = tested on: rat aortic smooth muscle cells (myocytes); assay: Myocytes growth inhibition measured by cell count (rat myocytes); format: cell-based; conditions: 72 h, cell count after 72 hours, read-out: IC50 = concentration required to inhibit cell growth by 50%
Protocol: Migration of myocytes was investigated for the present invention using rat aortic smooth muscle cells in the presence of fibrinogen as chemotactic factor, whereas for studies on their proliferation rat and human cells were used. Cell count and [3H]-thymidine incorporation were used to evaluate myocytes growth. The methodology was as follows:
Myocytes were cultured from the intima-medial layer of the aortas of male Sprague-Dawley rats (200-250 g). Cells were grown in monolayers at 37° C. in a humidified atmosphere of 5% CO2 in Eagle's minimum essential medium supplemented with 10% (v/v) fetal calf serum, 100 U/ml penicillin, 0.1 mg/ml streptomycin, 20 mM tricine buffer and 1% (v/v) non-essential amino acid solution. The medium was changed every third day. Cells were used between the 4th and 10th passage. Cell viability was timely assessed by trypan blue exclusion. Myocytes were identified for growth behavior, morphology and using monoclonal antibody specific for a-actin, the actin isoform typical of myocytes. Human vascular myocytes (A 617 from human femoral artery) kindly provided by Prof. G. Gabbiani of The General Pathology Institute (Geneva University--Switzerland) were grown in the same culture conditions. (These or other human vascular myocytes can be obtained and cultured as described by Corsini et al., Atherosclerosis, 101: 117-125, (1993); Corsini et al., Pharm. Res, 23: 173 (1991); Ross, R, J. Cell Bio., 50: 172, (1971); and Skalli, 0. et al., J. Cell Bio., 103: 2787 (1986)).
Cells were seeded at various densities for rat (2×10^5) and human (5 10×10^4) myocytes/petri dish (35 mm), and incubated with Eagle's minimum essential medium supplemented with 10% fetal calf serum. Twenty-four hours later the medium was changed to one containing 0.4% fetal calf serum to stop cell growth, and the cultures were incubated for 72 hours. At this time (time 0) the medium was replaced by one containing 10% fetal calf serum in the presence or absence of known concentrations of the 1,4-dihydropyridine compounds being tested (shown in Table 1). The incubation was continued for an additional 72 hours at 37° C. Just before the addition of the test substances, an aliquot from each petri dish was used for cell counting. Cell proliferation was evaluated by cell count after trypsinization of the monolayers using a Coulter Counter model ZM. Cell viability was assessed by trypan blue exclusion, and found to be greater than 95% at the drug concentrations used.

[2] = tested on: mouse peritoneal macrophages; assay: Cholesteryl ester hydrolysis in macrophages; format: cell-based; conditions: AcLDL 50 μg/ml + S-58035 1 μg/ml + 5 × 10^-6 M compound
Protocol: These experiments were performed by incubating cells preloaded with [^3 H]cholesterol in the presence of the specific ACAT inhibitor S-58035. The blockage of intracellular reesterification of cholesterol allowed the assessment of the ability of cells to hydrolyze the accumulated cholesterol esters.
For studies involving the quantitation of the hydrolysis of cholesteryl esters in cytoplasmic lipid droplets, cells, prepared according to the procedure in Example 6A, are loaded with cholesteryl esters by exposure for 24 hours to the medium containing 50 μg/ml acetyl LDL. [1,2-^3 H]Cholesterol is included in all loading media at a concentration of 0.5 μCi/ml. After 24 hours loading period, during which time the radiolabeled cholesterol is incorporated and esterified, the cell monolayers are washed and incubated an additional 24 hours in medium containing 0.1% bovine serum albumin to allow the intracellular pools of labelled cholesterol to equilibrate to the same specific activity. To quantitate cholesteryl ester hydrolysis, the loaded cells are incubated for up to 24 hours in Dulbecco's minimum essential medium containing, 0.1% bovine serum albumin, lercanidipines, and the compound S-58035, an inhibitor of acyl-coenzyme A-cholesterol acyltransferase. The inhibition of acyl-coenzyme A-cholesterol acyltransferase prevents the reesterification of any free cholesterol generated by cholesteryl ester hydrolysis and thus allows assessment of the activity of the hydrolase. The hydrolysis of the cholesteryl esters is quantified by determining the decrease of radiolabeled cholesteryl esters (E. H. Harrison et al., J. Lipid. Res. 31: […] with phosphate buffered saline and extracted with hexane:isopropanol (3:2 v/v). The media were extracted with chloroform:methanol (2:1 v/v). After solvent removal, free and esterified cholesterol were separated by TLC (isooctane:diethyl ether:acetic acid, 75:25:2 by volume). Cholesterol mass or radioactivity of the spots were determined by an enzymatic method (Boehringer Mannheim, Germany) (F. Bernini et al., Atherosclerosis 104: 19 (1993)) or by liquid scintillation counting (Lipoluma Lumac, Landgraf, The Netherlands) respectively.

[3] = tested on: renal hypertensive dogs; assay: Blood pressure in renal hypertensive dogs, oral administration; format: in vivo, dog; conditions: for ED25: Canis lupus familiaris, linear regression analysis, read-out: ED25 (dose inducing 25% decrease in DBP at peak effect), 95% C.L.
Protocol: The antihypertensive effects of oral administration of lercanidipine and its enantiomers were tested in renal hypertensive dogs.
Male Beagle dogs weighing 12-13 kg, aging 1-3 years (Nossan Allevamenti, Italy) were used. Chronic sustained hypertension was induced by bilateral renal artery constriction, according to the Goldblatt method "two-kidney, two clip hypertension". Under barbiturate anaesthesia (35 mg/kg i.v.), during two different surgical interventions one month apart from each other, both renal arteries were clipped with original renal silver clips and narrowed by about 60-70%. After two months from the last intervention,an experimental renal hypertension was produced and the animals were suitable for the implantation of a catheter. Under sodium pentobarbital anaesthesia (35 mg/kg i.v.), in sterile conditions, the dogs were catheterized by inserting an indwelling cannula (PE 200 Clay Adams) into the ascending aorta through the right common carotid artery. The catheter was subcutaneously exteriorized at the back of the neck, filled with heparinized saline solution and flushed daily to prevent clotting. After a week recovery time from surgery, the animals were connected to a HP 1290A pressure transducer connected to an HP 8805B carrier amplifier of a Hewlett Packard HP 7700 multichannel polygraph, to monitor the arterial blood pressure. Heart rate was manually computed from the pressure trace.
All animals were alternatively treated with placebo, lercanidipine and its (R)- and (S)- enantiomers. The drugs were administered orally with a straight round aseptic tip catheter (Pores Serlat--France). The drugs were suspended in aqueous 0.5% Methocel A4C plus Antifoam M10 (10%). The amount administered was 1 ml/kg.
The suspending medicine was used as placebo. During experimental performance, the arterial blood pressure was continuously recorded 30 min. before (basal values) and up to 8 hours after drug administration.
The ED25 values (dose inducing 25% decrease in DBP at peak effect) were evaluated by linear regression analysis and summarized in the Table 4.

[4] = myocytes from SD (Sprague Dawley) rat
[5] = myocytes from SHR (Spontaneously Hypertensive) rat
[6] = myocytes from WK (Wistar Kyoto) rat

SMILES | IC50 [1, 4] [µM] | IC50 [1, 5] [µM] | IC50 [1, 6] [µM] | % of cholesteryl ester [2] [%] | ED25 [3] [mg/kg] | decrease in DBP ([3]; up to 30 mg/kg) [%] | arterial blood pressure [3] | efficacy at lowering blood pressure relative to the racemate [3]
COC(=O)C1=C(C)NC(C)=C(C(=O)OC(C)(C)CN(C)CCC(c2ccccc2)c2ccccc2)[C@@H]1c1cccc([N+](=O)[O-])c1 [(R)-LE, (R)-(-)METHYL 1,1-N-TRIMETHYL-N-(3,3-DIPHENYLPROPYL)-2-AMINOETHYL 1,4-DIHYDRO-2,6-DIMETHYL-4-(3-NITROPHENYL)PYRIDINE-3,5-DICARBOXYLATE] | 30.7 | 9.2 | 15.3 | 16 ± 2.1 | > 30 | < 10 | – | –
COC(=O)C1=C(C)NC(C)=C(C(=O)OC(C)(C)CN(C)CCC(c2ccccc2)c2ccccc2)C1c1cccc([N+](=O)[O-])c1 (racemic) [LE, methyl 1,1,N-trimethyl-N-(3,3-diphenylpropyl)-2-aminoethyl 1,4-dihydro-2,6-dimethyl-4-(3-nitrophenyl)-pyridine-3,5-dicarboxylate] | – | – | – | 12 ± 1.2 | 0.9 | – | dose-related decrease | –
COC(=O)C1=C(C)NC(C)=C(C(=O)OC(C)(C)CN(C)CCC(c2ccccc2)c2ccccc2)[C@H]1c1cccc([N+](=O)[O-])c1 [(S)-LE, (S)-(+)-METHYL 1,1-N-TRIMETHYL-N-(3,3-DIPHENYLPROPYL)-2-AMINOETHYL 1,4-DIHYDRO-2,6-DIMETHYL-4-(3-NITROPHENYL)PYRIDINE-3,5-DICARBOXYLATE] | 33.3 | 16.8 | 20.7 | 14 ± 0.4 | 0.4 | – | dose-related decrease | two fold more efficacious
